Experimental data taken from US9376442B2, “Methylpyrrolopyrimidinecarboxamides” (Takeda GmbH, priority 2009, dated 2016).

Biological target: T1, PDE5A1 (Homo sapiens, UniProt O76074)
T1 construct: from tissue; host or cells: human platelets from fresh donor blood (10,000 x g supernatant of sonicated lysate)
Assay: Inhibition of type 5 phosphodiesterase (PDE5) activity, modified SPA test with human platelet lysate
Assay type: biochemical
Conditions: 0.5 μM cGMP, read-out: PDE5A1 inhibitory values [measured as −log IC50 (mol/l)] (converted)
Method in brief: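 Scintillation proximity assay with [3H]cGMP tracer at 0.5 μM total cGMP, stopped after 15 min with beads containing IBMX. PDE3 and PDE2 activities suppressed with motapizone (1 μM) and a PDE2 inhibitor (10 nM). Human platelet supernatant served as the enzyme, with compound preincubated 5 min at 37° C; IC50 values from concentration-effect curves.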

SMILES | IC50
COCC(=O)N[C@H]1CC[C@H](NC(=O)c2c(C)[nH]c3c(-c4cc(C)c(F)cc4OCC4CC4)ncnc23)CC1 [Example E124, 4-[2-(Cyclopropylmethoxy)-4-fluoro-5-methylphenyl]-N-{trans-4-[(methoxyacetyl)amino]cyclohexyl}-6-methyl-5H-pyrrolo[3,2-d]pyrimidine-7-carboxamide] | < 1 nM
CCC(=O)N1CCC(NC(=O)c2c(C)[nH]c3c(-c4ccc(OC)cc4OCC4CC4)ncnc23)CC1 [Example E56, 4-[2-(Cyclopropylmethoxy)-4-methoxyphenyl]-6-methyl-N-(1-propionylpiperidin-4-yl)-5H-pyrrolo[3,2-d]pyrimidine-7-carboxamide] | < 1 nM
CCC(=O)N1CCC(NC(=O)c2c(C)[nH]c3c(-c4cc(OC)c(F)cc4OCC4CC4)nc(C)nc23)CC1 [Example E174, 4-[2-(Cyclopropylmethoxy)-4-fluoro-5-methoxyphenyl]-2,6-dimethyl-N-(1-propanoylpiperidin-4-yl)-5H-pyrrolo[3,2-d]pyrimidine-7-carboxamide] | < 1 nM
COc1ccc(-c2ncnc3c(C(=O)N[C@@H]4CCN(C(C)=O)C4)c(C)[nH]c23)c(OCC2CC2)c1 [Example E60, N-[(3R)-1-acetylpyrrolidin-3-yl]-4-[2-(cyclopropylmethoxy)-4-methoxyphenyl]-6-methyl-5H-pyrrolo[3,2-d]pyrimidine-7-carboxamide] | < 1 nM
CC(=O)N[C@H]1CC[C@H](NC(=O)c2c(C)[nH]c3c(-c4ccc(F)cc4OCC4CC4)ncnc23)CC1 [Example E22, N-(trans-4-acetamidocyclohexyl)-4-[2-(cyclopropylmethoxy)-4-fluorophenyl]-6-methyl-5H-pyrrolo[3,2-d]pyrimidine-7-carboxamide] | < 1 nM
COc1cc(OCC2CC2)c(-c2nc(C)nc3c(C(=O)NC4CCN(C(C)=O)CC4)c(C)[nH]c23)cc1F [Example E172, N-(1-Acetylpiperidin-4-yl)-4-[2-(cyclopropylmethoxy)-5-fluoro-4-methoxyphenyl]-2,6-dimethyl-5H-pyrrolo[3,2-d]pyrimidine-7-carboxamide] | < 1 nM
CC(=O)N1CC[C@@H](NC(=O)c2c(C)[nH]c3c(-c4ccc(F)cc4OCC4CC4)ncnc23)C1 [Example E28, N-[(3R)-1-acetylpyrrolidin-3-yl]-4-[2-(cyclopropylmethoxy)-4-fluorophenyl]-6-methyl-5H-pyrrolo[3,2-d]pyrimidine-7-carboxamide] | 1 to 10 nM
COCC(=O)N[C@H]1CC[C@H](NC(=O)c2c(C)[nH]c3c(-c4ccc(F)cc4OCC4CC4)ncnc23)CC1 [Example E24, 4-[2-(Cyclopropylmethoxy)-4-fluorophenyl]-N-{trans-4-[(methoxyacetyl)amino]cyclohexyl}-6-methyl-5H-pyrrolo[3,2-d]pyrimidine-7-carboxamide] | < 1 nM
COCC(=O)N1CC[C@@H](NC(=O)c2c(C)[nH]c3c(-c4ccc(OC)cc4OCC4CC4)ncnc23)C1 [Example E62, 4-[2-(Cyclopropylmethoxy)-4-methoxyphenyl]-N-[(3R)-1-(methoxyacetyl)pyrrolidin-3-yl]-6-methyl-5H-pyrrolo[3,2-d]pyrimidine-7-carboxamide] | < 1 nM
COCC(=O)N1CCC(NC(=O)c2c(C)[nH]c3c(-c4ccc(OC)cc4OCC4CC4)ncnc23)CC1 [Example E57, 4-[2-(Cyclopropylmethoxy)-4-methoxyphenyl]-N-[1-(methoxyacetyl)piperidin-4-yl]-6-methyl-5H-pyrrolo[3,2-d]pyrimidine-7-carboxamide] | < 1 nM
CC(=O)N1C[C@@H](O)[C@H](NC(=O)c2c(C)[nH]c3c(-c4ccc(F)cc4OCC4CC4)ncnc23)C1 (relative stereo) [Example E31, N-[(3R*,4R*)-1-acetyl-4-hydroxypyrrolidin-3-yl]-4-[2-(cyclopropylmethoxy)-4-fluorophenyl]-6-methyl-5H-pyrrolo[3,2-d]pyrimidine-7-carboxamide] | 1 to 10 nM
CCOC(=O)N1CCC(NC(=O)c2c(C)[nH]c3c(-c4c(OCC5CC5)ccc5c4OCO5)ncnc23)CC1 [Example E4, Ethyl 4-[({4-[5-(cyclopropylmethoxy)-1,3-benzodioxol-4-yl]-6-methyl-5H-pyrrolo[3,2-d]pyrimidin-7-yl}carbonyl)amino]piperidine-1-carboxylate] | < 1 nM
COc1ccc(OCC2CC2)c(-c2ncnc3c(C(=O)N[C@@H]4CN(C(C)=O)C[C@H]4O)c(C)[nH]c23)c1 (relative stereo) [Example E192, N-[(3R*,4R*)-1-Acetyl-4-hydroxypyrrolidin-3-yl]-4-[2-(cyclopropylmethoxy)-5-methoxyphenyl]-6-methyl-5H-pyrrolo[3,2-d]pyrimidine-7-carboxamide] | 1 to 10 nM

Further lines, results first:

IC50 | SMILES
< 1 nM | COc1ccc(-c2ncnc3c(C(=O)NC4CN(C(=O)C(C)O)CC4O)c(C)[nH]c23)c(OCC2CC2)c1 (mixture of isomers) [Example F40, Diastereomeric mixture of 4-[2-(cyclopropylmethoxy)-4-methoxyphenyl]-N{(3R,4R)-4-hydroxy-1-[(2S)-2-hydroxypropanoyl]pyrrolidin-3-yl}-6-methyl-5H-pyrrolo[3,2-d]pyrimidine-7-carboxamide and 4-[2-(cyclopropylmethoxy)-4-methoxyphenyl]-N-{(3S,4S)-4-hydroxy-1-[(2S)-2-hydroxypropanoyl]pyrrolidin-3-yl}-6-methyl-5H-pyrrolo[3,2-d]pyrimidine-7-carboxamide]
< 1 nM | COc1cc(-c2ncnc3c(C(=O)NC4CCN(C(=O)CO)CC4)c(C)[nH]c23)c(OCC2CC2)cc1F [Example F65, 4-[2-(Cyclopropylmethoxy)-4-fluoro-5-methoxyphenyl]-N-(1-glycoloylpiperidin-4-yl)-6-methyl-5H-pyrrolo[3,2-d]pyrimidine-7-carboxamide]
1 to 10 nM | COc1ccc(OCC2CC2)c(-c2ncnc3c(C(=O)NC4CN(C(=O)C(C)O)CC4O)c(C)[nH]c23)c1 (mixture of isomers) [Example F120, 4-[2-(Cyclopropylmethoxy)-5-methoxyphenyl]-N-{(31R*,4R*)-4-hydroxy-1-[(2S)-2-hydroxypropanoyl]pyrrolidin-3-yl}-6-methyl-5H-pyrrolo[3,2-d]pyrimidine-7-carboxamide]
< 1 nM | Cc1cc(-c2ncnc3c(C(=O)N[C@H]4CC[C@@H](NC(=O)CO)CC4)c(C)[nH]c23)c(OCC2CC2)cc1F [Example F79, 4-[2-(Cyclopropylmethoxy)-4-fluoro-5-methylphenyl]-N-{cis-4-[(hydroxyacetyl)amino]cyclohexyl}-6-methyl-5H-pyrrolo[3,2-d]pyrimidine-7-carboxamide]
< 1 nM | COc1cc(OCC2CC2)c(-c2ncnc3c(C(=O)N[C@@H]4CCN(C(=O)CO)C[C@H]4O)c(C)[nH]c23)cc1F (relative stereo) [Example F89, 4-[2-(cyclopropylmethoxy)-5-fluoro-4-methoxyphenyl]-N-[(3R*,4R*)-3-hydroxy-1-(hydroxyacetyl)piperidin-4-yl]-6-methyl-5H-pyrrolo[3,2-d]pyrimidine-7-carboxamide]
< 1 nM | COc1ccc(-c2ncnc3c(C(=O)NC4CCN(C(=O)[C@H](C)O)CC4)c(C)[nH]c23)c(OCC2CC2)c1 [Example F35, 4-[2-(Cyclopropylmethoxy)-4-methoxyphenyl]-N-{1-[(2S)-2-hydroxypropanoyl]piperidin-4-yl}-6-methyl-5H-pyrrolo[3,2-d]pyrimidine-7-carboxamide]
